Results taken from article PMC6135981 (iScience, 2018).
Values belong to the compound of their own block, whether it stands above or below them.

What was measured:
[1] = tested on: 3D intestinal tissue; conditions: 3D intestine, apical to basal direction
[2] = in vitro; conditions: human
[3] = tested on: prostaglandin E2 secretion; experiment: Prostaglandin E2 secretion, 3D intestinal tissue; assay type: cell-based, human; conditions: all doses, 24-hr treatment
[4] = molecular target: CYP2C9 (Homo sapiens, UniProt P11712)
CYP2C9, sequence (P11712 whole entry): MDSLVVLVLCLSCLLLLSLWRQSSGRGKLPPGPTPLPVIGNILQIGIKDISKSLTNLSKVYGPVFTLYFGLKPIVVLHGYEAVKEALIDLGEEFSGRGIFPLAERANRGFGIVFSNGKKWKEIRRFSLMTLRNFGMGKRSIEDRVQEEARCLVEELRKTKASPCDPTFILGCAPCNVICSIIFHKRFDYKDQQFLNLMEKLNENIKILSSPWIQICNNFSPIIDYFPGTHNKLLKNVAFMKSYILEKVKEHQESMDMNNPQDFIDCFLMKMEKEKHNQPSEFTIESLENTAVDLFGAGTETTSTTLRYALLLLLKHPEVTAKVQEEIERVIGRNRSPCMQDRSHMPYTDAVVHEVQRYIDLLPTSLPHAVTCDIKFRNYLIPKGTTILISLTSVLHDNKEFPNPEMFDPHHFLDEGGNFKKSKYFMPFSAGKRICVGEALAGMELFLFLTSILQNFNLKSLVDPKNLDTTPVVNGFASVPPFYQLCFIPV

[5] = molecular target: T1, P-gp (Homo sapiens, UniProt P08183); conditions: 3D intestinal tissue
T1 sequence (P08183 whole entry): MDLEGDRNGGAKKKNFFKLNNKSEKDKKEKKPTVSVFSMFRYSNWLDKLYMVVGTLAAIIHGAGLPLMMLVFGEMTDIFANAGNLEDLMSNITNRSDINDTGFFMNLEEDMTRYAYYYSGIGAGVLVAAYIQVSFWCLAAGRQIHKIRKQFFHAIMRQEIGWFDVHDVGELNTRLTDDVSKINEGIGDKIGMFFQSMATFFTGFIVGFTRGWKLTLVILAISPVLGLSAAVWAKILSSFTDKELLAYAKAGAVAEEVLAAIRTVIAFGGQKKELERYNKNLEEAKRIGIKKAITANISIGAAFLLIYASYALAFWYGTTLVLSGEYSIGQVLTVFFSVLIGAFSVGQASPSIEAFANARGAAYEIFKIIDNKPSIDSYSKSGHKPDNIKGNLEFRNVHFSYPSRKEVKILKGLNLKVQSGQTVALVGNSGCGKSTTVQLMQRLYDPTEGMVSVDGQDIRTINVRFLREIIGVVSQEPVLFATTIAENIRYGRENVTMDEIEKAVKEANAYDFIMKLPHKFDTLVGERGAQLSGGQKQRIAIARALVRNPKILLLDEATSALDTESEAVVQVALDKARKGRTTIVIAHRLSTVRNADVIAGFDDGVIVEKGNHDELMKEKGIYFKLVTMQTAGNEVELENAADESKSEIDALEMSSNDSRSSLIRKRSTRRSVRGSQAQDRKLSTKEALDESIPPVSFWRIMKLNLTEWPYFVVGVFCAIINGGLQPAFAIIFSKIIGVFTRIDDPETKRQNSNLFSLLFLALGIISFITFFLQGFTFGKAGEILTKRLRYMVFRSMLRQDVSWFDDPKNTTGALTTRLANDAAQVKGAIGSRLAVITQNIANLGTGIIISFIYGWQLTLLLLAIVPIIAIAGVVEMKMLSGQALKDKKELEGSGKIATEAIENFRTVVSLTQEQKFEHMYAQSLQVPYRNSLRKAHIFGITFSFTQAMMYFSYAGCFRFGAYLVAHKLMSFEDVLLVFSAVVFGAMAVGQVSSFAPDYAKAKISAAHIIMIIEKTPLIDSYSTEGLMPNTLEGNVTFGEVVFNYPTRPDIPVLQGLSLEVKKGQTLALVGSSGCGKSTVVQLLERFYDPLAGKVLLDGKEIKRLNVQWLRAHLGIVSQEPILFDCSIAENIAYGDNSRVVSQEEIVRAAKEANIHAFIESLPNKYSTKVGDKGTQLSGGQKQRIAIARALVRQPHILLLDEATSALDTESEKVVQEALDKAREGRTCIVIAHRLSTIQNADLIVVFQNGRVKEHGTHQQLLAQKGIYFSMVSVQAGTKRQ

[6] = tested on: CYP3A4
[7] = tested on: IMF tissue alone
[8] = tested on: 3D Caco-2 tissues; conditions: 3D Caco-2 model
[9] = tested on: 2D Caco-2 monolayers; conditions: 2D Caco-2 model
[10] = molecular target: T1, P-gp; experiment: in vitro; conditions: Efflux ratio (B to A)/(A to B)
[11] = molecular target: T2, BCRP (Homo sapiens, UniProt Q9UNQ0); experiment: in vitro; conditions: Efflux ratio (B to A)/(A to B), 3D intestinal tissue, dual inhibition with Ko143 and zosuquidar
T2 sequence (Q9UNQ0 1-655): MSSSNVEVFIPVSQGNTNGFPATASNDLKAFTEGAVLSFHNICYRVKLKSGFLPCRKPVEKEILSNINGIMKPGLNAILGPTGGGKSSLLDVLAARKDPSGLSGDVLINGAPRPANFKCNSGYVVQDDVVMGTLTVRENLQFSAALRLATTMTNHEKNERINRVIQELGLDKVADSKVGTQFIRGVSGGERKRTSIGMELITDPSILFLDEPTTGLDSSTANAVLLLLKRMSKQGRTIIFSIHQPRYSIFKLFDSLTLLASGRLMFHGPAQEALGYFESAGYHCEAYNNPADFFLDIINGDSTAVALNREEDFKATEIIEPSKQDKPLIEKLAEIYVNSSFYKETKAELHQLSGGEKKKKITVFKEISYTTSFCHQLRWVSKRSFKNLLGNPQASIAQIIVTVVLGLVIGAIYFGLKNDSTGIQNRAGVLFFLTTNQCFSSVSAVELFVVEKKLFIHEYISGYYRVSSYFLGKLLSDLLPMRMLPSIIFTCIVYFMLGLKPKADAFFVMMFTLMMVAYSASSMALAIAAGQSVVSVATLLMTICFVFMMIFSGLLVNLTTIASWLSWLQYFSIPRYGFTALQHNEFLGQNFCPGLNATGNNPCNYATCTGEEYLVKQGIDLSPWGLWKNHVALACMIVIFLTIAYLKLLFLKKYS

[12] = tested on: 3D intestinal tissue; assay type: cell-based, human; conditions: 24-hr treatment
[13] = tested on: TNF-α/nuclear factor (NF)-κB pathway; experiment: Gene expression of TNF-α/NF-κB pathway targets, 3D intestinal tissue; assay type: cell-based, human; conditions: TNF-α for 24 hr
[14] = tested on: 3D intestinal tissue; experiment: LDH release after toxicant treatment, 3D intestinal tissue; assay type: cell-based, human; conditions: TNF-α for 24 hr

Compound: COc1ccc2c(c1)c(CC(=O)O)c(C)n2C(=O)c1ccc(Cl)cc1 [indomethacin]
Prostaglandin E2 secretion [3]: inhibition of prostaglandin E2 secretion

Compound: CC(=O)N1CCN(c2ccc(OCC3COC(Cn4ccnc4)(c4ccc(Cl)cc4Cl)O3)cc2)CC1 (centres unmarked) [ketoconazole]
Effect on CYP3A4 activity (midazolam metabolite formation) [6]: specific inhibition

Compound: O=C1c2c(O)ccc(O)c2C(=O)c2c(NCCNCCO)ccc(NCCNCCO)c21 [mitoxantrone]
Papp [2]: 0.2 ± 0.03 ×10⁻⁶ cm/s

Compound: CC[C@@]1(O)C(=O)OCc2c1cc1n(c2=O)Cc2cc3c(CN(C)C)c(O)ccc3nc2-1 [topotecan]
efflux ratio [11]: 1.4
Permeability class [1]: moderate
Papp [2]: 3.1 ± 0.63 ×10⁻⁶ cm/s

Compound: tumor necrosis factor alpha [TNF-α]
Epithelial morphology (histology) [12]: altered the epithelial morphology
Gene expression of IL-6, IL-8, CCL2, CXCL10, ICAM1, and TNF-α [13]: upregulated
LDH release [14]: significant increase

More lines, now with the values ahead:

Permeability class [1]: high
Papp [2]: 14.8 ± 1.96 ×10⁻⁶ cm/s
Compound: CC(C)NCC(O)COc1cccc2ccccc12 (centres unmarked) [propranolol]

Effect on CYP2C9 activity (luminogenic P450 substrate conversion) [4]: significantly inhibited
Compound: Nc1ccc(S(=O)(=O)Nc2ccnn2-c2ccccc2)cc1 [sulfaphenazole]

Effect on B to A transport of digoxin [5]: decreased the rate of B to A transport
Compound: O[C@@H](COc1cccc2ncccc12)CN1CCN([C@@H]2c3ccccc3[C@@H]3[C@H](c4ccccc42)C3(F)F)CC1 [zosuquidar]

Permeability (Papp) [7]: 163 ± 29 ×10⁻⁶ cm/s
Papp [8]: 1.05 ± 0.1 ×10⁻⁶ cm/s
Papp [9]: 0.46 ± 0.25 ×10⁻⁶ cm/s
Papp [1]: 0.45 ± 1.5 ×10⁻⁶ cm/s
Compound: lucifer yellow

efflux ratio [10]: > 2
Permeability class [1]: moderate
Papp [2]: 8.53 ± 2.02 ×10⁻⁶ cm/s
Compound: C[C@H]1O[C@@H](O[C@H]2[C@@H](O)C[C@H](O[C@H]3[C@@H](O)C[C@H](O[C@H]4CC[C@@]5(C)[C@H](CC[C@@H]6[C@@H]5C[C@@H](O)[C@]5(C)[C@@H](C7=CC(=O)OC7)CC[C@]65O)C4)O[C@@H]3C)O[C@@H]2C)C[C@H](O)[C@@H]1O [digoxin]
